In one test the target is T1, Orexin receptor type 2 (Homo sapiens, UniProt O43614).
T1 sequence (O43614 whole entry): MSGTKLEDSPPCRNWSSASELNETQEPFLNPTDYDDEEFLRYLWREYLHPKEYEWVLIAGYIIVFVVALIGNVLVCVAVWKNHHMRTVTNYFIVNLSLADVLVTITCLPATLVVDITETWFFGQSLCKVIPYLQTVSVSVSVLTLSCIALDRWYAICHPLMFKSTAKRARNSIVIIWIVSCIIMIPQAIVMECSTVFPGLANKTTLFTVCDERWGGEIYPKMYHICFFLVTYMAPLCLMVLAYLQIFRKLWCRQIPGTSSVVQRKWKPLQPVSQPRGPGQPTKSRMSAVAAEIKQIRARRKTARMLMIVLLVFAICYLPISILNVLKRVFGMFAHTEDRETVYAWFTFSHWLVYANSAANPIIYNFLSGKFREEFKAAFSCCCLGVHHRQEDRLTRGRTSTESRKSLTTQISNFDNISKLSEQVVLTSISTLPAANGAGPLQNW
As to the kind of experiment: Antagonist activity at human OX2 receptor expressed in CHOK1 cells assessed as inhibition of orexin-A-induced calcium mobilization preincubated for 15 mins followed by orexin-A addition and measured by FURA 2-AM dye based fluorescence assay. The class given is functional, cell-based.

Test [1] concerns the target T2, Orexin/Hypocretin receptor type 1 (Homo sapiens, UniProt O43613).
T2 sequence (O43613 whole entry): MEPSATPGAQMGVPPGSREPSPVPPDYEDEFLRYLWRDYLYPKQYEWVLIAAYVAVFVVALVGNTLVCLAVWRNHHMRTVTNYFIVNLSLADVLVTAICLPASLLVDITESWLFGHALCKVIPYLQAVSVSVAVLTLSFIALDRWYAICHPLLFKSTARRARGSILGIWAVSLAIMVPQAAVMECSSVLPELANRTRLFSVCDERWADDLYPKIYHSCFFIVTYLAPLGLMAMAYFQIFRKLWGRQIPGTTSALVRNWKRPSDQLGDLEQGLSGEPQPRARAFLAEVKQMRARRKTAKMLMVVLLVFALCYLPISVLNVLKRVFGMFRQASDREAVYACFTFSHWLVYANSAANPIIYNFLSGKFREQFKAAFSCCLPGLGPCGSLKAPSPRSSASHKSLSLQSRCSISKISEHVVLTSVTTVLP
As to the kind of experiment: Antagonist activity at human OX1 receptor expressed in CHOK1 cells assessed as inhibition of orexin-A-induced calcium mobilization preincubated for 15 mins followed by orexin-A addition and measured by FURA 2-AM dye based fluorescence assay. The format is functional, cell-based.

Molecules are shown by their SMILES.

`COc1ccc2c(c1)[C@]13CCN(S(=O)(=O)c4ccccc4)[C@H](C2)[C@]1(O)CC[C@@H](N(C)C(=O)/C=C/c1ccoc1)C3`: the Ki on Orexin receptor type 2 was more than 10000 nM.

`COc1ccc2c3c1O[C@H]1[C@H](N(C)C(=O)/C=C/c4ccoc4)CC[C@@]4(O)[C@@H](C2)N(S(=O)(=O)c2ccccc2)CC[C@]314`: the Ki on Orexin receptor type 2 was more than 10000 nM.

Take `COc1ccc2c(c1)[C@]13CCN(S(=O)(=O)c4ccccc4)[C@H](C2)C1=CC[C@H](N(C)C(=O)/C=C/c1ccoc1)C3`: the Ki was more than 10000 nM on Orexin receptor type 2 and 502 nM in test [1].

Regarding `COc1ccc2c(c1)[C@]13CCN(S(=O)(=O)c4ccccc4)[C@H](C2)C1=CC[C@@H](N(C)C(=O)/C=C/c1ccoc1)C3`, the Ki on Orexin receptor type 2 is more than 10000 nM; in test [1], 5.89 nM.

As for `CN(C(=O)/C=C/c1ccoc1)[C@@H]1CC[C@@]2(O)[C@H]3Cc4ccccc4[C@@]2(CCN3S(=O)(=O)c2ccccc2)C1`, the Ki was more than 10000 nM on Orexin receptor type 2 and 461 nM in test [1].

As to `COc1ccc2c(c1)[C@]13CCN(S(=O)(=O)c4ccccc4)[C@H](C2)[C@@H]1CC[C@H](N(C)C(=O)/C=C/c1ccoc1)C3`, the figures for the Ki (on Orexin receptor type 2; in test [1]) were 79.9 nM and 4.34 nM, respectively.

Regarding `COc1ccc2c(c1)[C@]13CCN(S(=O)(=O)c4ccccc4)[C@H](C2)[C@@H]1CC[C@@H](N(C)C(=O)/C=C/c1ccoc1)C3`, the Ki is more than 10000 nM at Orexin receptor type 2 and 5.51 nM in test [1].

As to `CN(C(=O)/C=C/c1ccoc1)[C@H]1CC[C@@]2(O)[C@H]3Cc4ccccc4[C@@]2(CCN3S(=O)(=O)c2ccccc2)C1`, the Ki was determined as 173 nM at Orexin receptor type 2 and 9.35 nM in test [1].

Take `CN(C(=O)/C=C/c1ccoc1)[C@H]1CC[C@@]2(O)[C@H]3CC4=C(CCCC4)[C@@]2(CCN3S(=O)(=O)c2ccccc2)C1`: the Ki at Orexin receptor type 2 was found to be 91.9 nM; in test [1], 7.45 nM.

As for `CN(C(=O)/C=C/c1ccoc1)[C@@H]1CC[C@@]2(O)[C@H]3CC4=C(CCCC4)[C@@]2(CCN3S(=O)(=O)c2ccccc2)C1`, the Ki (at Orexin receptor type 2; in test [1]) was more than 10000 nM throughout.

The values are drawn from ChEMBL document CHEMBL4400571, “Essential structure of orexin 1 receptor antagonist YNT-707, part III: Role of the 14-hydroxy and the 3-methoxy groups in antagonistic activity toward the orexin 1 receptor in YNT-707 derivatives lacking the 4,5-epoxy ring” (Bioorg Med Chem, 2019).
